Experimental data as given in patent publication US8450327B2, “CGRP antagonists” (Boehringer Ingelheim International GmbH, priority 2007, dated 2013).

Target: T1, human CGRP receptor (Homo sapiens, UniProt O60894+Q16602)
T1 construct: SK-N-MC cells are cultivated in “Dulbecco's modified Eagle medium”; endogenous in cells; host or cells: SK-N-MC cells (membrane homogenate)
Test: Binding studies with SK-N-MC cells (expressing the human CGRP receptor), 125I-CGRP displacement on membranes
Conditions: SK-N-MC cell membranes, 50 pM 125I-iodotyrosyl-CGRP, 180 min at ambient temperature
Method: A. Binding Studies with SK-N-MC Cells (Expressing the Human CGRP Receptor)
SK-N-MC cells are cultivated in “Dulbecco's modified Eagle medium”. The medium is removed from confluent cultures. The cells are washed twice with PBS buffer (Gibco 041-04190 M), detached by the addition of PBS buffer mixed with 0.02% EDTA, and isolated by centrifuging. After resuspension in 20 ml of “Balanced Salts Solution” [BSS (in mM): NaCl 120, KCl 5.4, NaHCO3 16.2, MgSO4 0.8, NaHPO4 1.0, CaCl2 1.8, D-glucose 5.5, HEPES 30, pH 7.40] the cells are centrifuged twice at 100×g and resuspended in BSS. After the number of cells has been determined, the cells are homogenised using an Ultra-Turrax and centrifuged for 10 minutes at 3000×g. […]
After thawing, the homogenised product is diluted 1:10 with assay buffer (50 mM Tris, 150 mM NaCl, 5 mM MgCl2, 1 mM EDTA, pH 7.40) and homogenised for 30 seconds with an Ultra-Turrax. […] The protein-bound radioactivity is measured using a gamma counter. Non-specific binding is defined as the bound radioactivity after the presence of 1 μM human CGRP-alpha during incubation.
The concentration binding curves are analysed using computer-aided non-linear curve fitting.

T1 sequence (Q16602 23-461): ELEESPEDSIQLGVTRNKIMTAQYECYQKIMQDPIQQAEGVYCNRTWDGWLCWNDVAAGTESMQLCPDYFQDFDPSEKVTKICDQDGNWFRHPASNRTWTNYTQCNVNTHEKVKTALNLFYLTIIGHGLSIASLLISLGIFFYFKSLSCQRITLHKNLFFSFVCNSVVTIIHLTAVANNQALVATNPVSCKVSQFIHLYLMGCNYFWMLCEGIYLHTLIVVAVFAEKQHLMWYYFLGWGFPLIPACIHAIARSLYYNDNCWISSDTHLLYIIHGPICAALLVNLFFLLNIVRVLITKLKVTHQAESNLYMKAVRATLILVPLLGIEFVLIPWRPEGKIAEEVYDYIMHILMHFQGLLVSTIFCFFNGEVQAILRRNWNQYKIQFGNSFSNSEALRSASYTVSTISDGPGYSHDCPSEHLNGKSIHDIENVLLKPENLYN
T1 sequence (O60894 27-148): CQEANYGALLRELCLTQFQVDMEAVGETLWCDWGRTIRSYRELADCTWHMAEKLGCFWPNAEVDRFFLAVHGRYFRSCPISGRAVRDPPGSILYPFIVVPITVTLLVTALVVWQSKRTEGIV

Row | SMILES | Ki
1 | Cc1cc(C(=O)c2cc(N3CCC4(CC3)NC(=O)Nc3ccccc34)ncn2)cc2oc(=O)[nH]c12 [Example 1, 4-methyl-6-(6-(2′-oxo-2′,3′-dihydro-1′H-spiro[piperidin-4,4′-quinazolin]-1-yl)pyrimidine-4-carbonyl)benzo[d]oxazol-2(3H)-one] | 6 nM
2 | Cc1cc(C(=O)c2cc(Nc3ccc4c(c3)CC3(C4)C(=O)Nc4ncccc43)ncn2)cc2oc(=O)[nH]c12 (centres unmarked) [Example 2, 4-methyl-6-(6-(2′-oxo-1,1′,2′,3-tetrahydrospiro[inden-2,3′-pyrrolo[2,3-b]pyridin]-5-ylamino)pyrimidine-4-carbonyl)benzo[d]oxazol-2(3H)-one] | 27 nM
